Source: ChEMBL document CHEMBL3046101, “Synthesis and Biological Activity of 1,2-Dithiolanes and 1,2-Dithianes Bearing a Nitrogen-containing Substituent” (1992)

Legend:
Assay type in all cases: functional
Chilo suppressalis [1] = experiment: Insecticidal activity against Chilo suppressalis (rice stem borer) assessed as mortality at 50 ug/g administered as topical application
Nilaparvata lugens = experiment: Insecticidal activity against Nilaparvata lugens (brown planthopper) assessed as mortality at 50 ppm
Culex pipiens molestus = experiment: Insecticidal activity against Culex pipiens molestus assessed as mortality at 5 ppm
Tetranychus urticae [2] = experiment: Acaricidal activity against Tetranychus urticae (two-spotted spider mite) assessed as mortality at 500 ppm
Spodoptera litura = experiment: Insecticidal activity against Spodoptera litura assessed as mortality at 500 ppm
Chilo suppressalis [3] = experiment: Insecticidal activity against Chilo suppressalis (rice stem borer) assessed as mortality compound administered as topical application
Tetranychus urticae [4] = experiment: Acaricidal activity against Tetranychus urticae (two-spotted spider mite) assessed as mortality

Compound	mortality (Chilo suppressalis [1]) [%]	mortality at 50 ppm (Nilaparvata lugens) [%]	mortality at 5 ppm (Culex pipiens molestus) [%]	mortality at 500 ppm (Tetranychus urticae [2]) [%]	mortality at 500 ppm (Spodoptera litura) [%]	LD50 (Chilo suppressalis [3]) [mg/kg]	LC50 (Tetranychus urticae [4]) [µg/mL]
CN(C)CC1CCSS1.O=C(O)C(=O)O (stereo not drawn)	100	80	100	100	30	4.3	
CN(C)CCC1CCSS1.O=C(O)C(=O)O (stereo not drawn)	100	20	100	100	0	23.2	126
CN(C)CCC1CSSC1.O=C(O)C(=O)O	100	100	95	100	40	28.1	
CN(C)C1CSSC1.O=C(O)C(=O)O [NEREISTOXIN HYDROGEN OXALATE]	100	100	100	50	30	1.7	603
CN(C)NC1CSSC1.O=C(O)C(=O)O	100	45	25	100	0	36.2	
CN(C)C[C@H]1C[C@@H](CN(C)C)SS1.O=C(O)C(=O)O	0	5	0	100	30		20
CN(C)N(C)C1CSSC1.O=C(O)C(=O)O	100	60	100	100	0	15	
CN(C)CC1CCCSS1.O=C(O)C(=O)O (stereo not drawn)	0	50	0	20	0		
O=C(O)C(=O)O.c1ccc(C2CSSC2)nc1	10	70	100	100	0		
CC1CSSC1CN(C)C.O=C(O)C(=O)O (stereo not drawn)	80	75	0	100	0	50	209
CN(C)CC1CSSC1.O=C(O)C(=O)O	100	100	100	100	90		88
CN(C)C[C@H]1C[C@H](CN(C)C)SS1.O=C(O)C(=O)O (relative stereo)	0	20	0	90	0		116
O=C(O)C(=O)O.O=[N+]([O-])c1cccc2c1SSC2	10	80	95	100	30		
CN1CCCCC1C1CSSC1.O=C(O)C(=O)O (stereo not drawn)	70	100	95	100	10		
CN(C)CC1(C)CSSC1.O=C(O)C(=O)O	70	100	100	90	40		
CN(C)CCCC1CSSC1.O=C(O)C(=O)O	60	10	40	100	0		
CC1CC(CN(C)C)SS1.O=C(O)C(=O)O (stereo not drawn)	80	95	0	100	20		
CC(C)C1CSSC1	20	0	0	50	20		
CN(C)CC1CCC(CN(C)C)SS1.O=C(O)C(=O)O (stereo not drawn)	0	0	0	100	0		
CN(C)CCCCC1CSSC1.O=C(O)C(=O)O	0	20	75	100	0		
